Results from patent publication US20170205395A1, “METHODS FOR PROVIDING PERSONALIZED MEDICINE TEST EX VIVO FOR HEMATOLOGICAL NEOPLASMS” (priority 2009, published 2017).
Like-named read-outs stand apart in the source and are kept apart here.

Experiments:
malignant CLL cells = assay type: cell-based; settings: for ability of SSRIs to induce apoptosis in malignant CLL cells: FIG. 9; for ex vivo patient response: 30 μM; for induction of apoptosis after 24 hours: CLL whole blood samples, 24 hours incubation, FIG. 8; for ex vivo efficacy in killing malignant cells compared with approved cytotoxic drugs: CLL ex vivo samples, FIG. 6
MOLT-4 cells = test: Apoptosis ELISA (one step sandwich ELISA of histone-complexed DNA fragments); assay type: cell-based, human; settings: 24 hours, FIG. 20
From the text: The one step sandwich ELISA is based in the quantification of histone-complexed DNA fragments (mono- and oligonucleosomes) out of the cytoplasm of cells after the induction of apoptosis or when released from necrotic cells.

[1] = tested on: active caspase-3 in MOLT-4 cells; test: Active caspase-3 determination by Western blot; assay type: cell-based, human; settings: 24 hours, FIG. 21
Method: Caspase-3 activation was determined using a Western blot of extracts from two acute lymphoblastic cell lines (TOM-1 and MOLT-4) exposed to increased concentrations of sertraline. […] Active caspase-3 is a protease that serves as a marker of apoptosis.

T and NK cells = test: Ex vivo Annexin V flow cytometry apoptosis assay in CLL whole blood, non-malignant cells; assay type: cell-based, human; settings: approximately 30 μM, whole blood sample from a CLL patient, FIG. 7
[2] = tested on: patients with Chronic Lymphocytic Leukemia; settings: cited from earlier work
[3] = CLL sample, maximum concentrations, cyclophosphamide tested as its metabolite maphosphamide, FIG. 22

Compound: CN(C)C/C=C(/c1ccc(Br)cc1)c1cccnc1 [zimelidine]
- ability of SSRIs to induce apoptosis in malignant CLL cells (malignant CLL cells): only 3 (paroxetine, fluoxetine, and sertraline) induce apoptosis similarly

Compound: COCCCC/C(=N\OCCN)c1ccc(C(F)(F)F)cc1 [fluvoxamine]
- ability of SSRIs to induce apoptosis in malignant CLL cells (malignant CLL cells): only 3 (paroxetine, fluoxetine, and sertraline) induce apoptosis similarly

Compound: O=C1c2c(O)ccc(O)c2C(=O)c2c(NCCNCCO)ccc(NCCNCCO)c21 [mitoxantrone]
- ex vivo patient response (malignant CLL cells; patients P1.0105, P2.0019 and P2.035, FIG. 4): extreme resistance ex vivo
- ex vivo efficacy (resistant / sensitive) (malignant CLL cells; [3]): resistant
- induction of apoptosis after 24 hours (malignant CLL cells): ~50%

Compound: O=P1(N(CCCl)CCCl)NCCCO1 (centres unmarked) [cyclophosphamide]
- ex vivo efficacy (resistant / sensitive) (malignant CLL cells): resistant

Compound: CN[C@H]1CC[C@@H](c2ccc(Cl)c(Cl)c2)c2ccccc21 [sertraline]
- ex vivo efficacy in killing malignant cells compared with approved cytotoxic drugs (malignant CLL cells): ex vivo efficacy similar to that of the approved cytotoxic drugs
- potentiation of chlorambucil-induced apoptosis (malignant CLL cells; CLL patient sample, sub-maximal dose of sertraline added to chlorambucil, upper curve of FIG. 11): greatly enhanced the level of apoptosis
- time to eliminate all malignant cells (malignant CLL cells; CLL sample, FIG. 28): ≤ 24 h
- incubation with the sample required to induce maximal apoptosis (malignant CLL cells; CLL sample, drug washed away, apoptosis measured at 24 or 48 hours, FIG. 28): 30 min
- induction of apoptosis after 24 hours (malignant CLL cells): more than 90%
- ability of SSRIs to induce apoptosis in malignant CLL cells (malignant CLL cells): induce apoptosis similarly to clinically approved cytotoxic drugs
- increase of the Apoptosis Index (MOLT-4 cells): up to 7 fold
- induction of active caspase-3 [1]: dramatically induced active caspase-3

Compound: COc1ccc(CCN2CCC(Nc3nc4ccccc4n3Cc3ccc(F)cc3)CC2)cc1 [astemizole]
- ex vivo efficacy in killing malignant cells compared with approved cytotoxic drugs (malignant CLL cells): ex vivo efficacy similar to that of the approved cytotoxic drugs

Compound: COc1cccc2c1C(=O)c1c(O)c3c(c(O)c1C2=O)C[C@@](O)(C(=O)CO)C[C@@H]3O[C@H]1C[C@H](N)[C@H](O)[C@H](C)O1 [doxorubicin]
- ex vivo patient response (malignant CLL cells; the two patients denoted by a star, FIG. 4): very effective

Compound: rituximab: antibody approved for CLL treatment
- ex vivo efficacy (resistant / sensitive) (malignant CLL cells; [3]): resistant

Compound: Fc1ccc([C@@H]2CCNC[C@H]2COc2ccc3c(c2)OCO3)cc1 [paroxetine]
- ex vivo efficacy in killing malignant cells compared with approved cytotoxic drugs (malignant CLL cells): ex vivo efficacy similar to that of the approved cytotoxic drugs
- ability of SSRIs to induce apoptosis in malignant CLL cells (malignant CLL cells): induce apoptosis similarly to clinically approved cytotoxic drugs
- apoptosis in leukemic cells (malignant CLL cells; approximately 30 μM, whole blood sample from a CLL patient, FIG. 7): ~100%
- apoptosis in T and NK cells (T and NK cells): 15%

Compound: Nc1nc(F)nc2c1ncn2[C@@H]1O[C@H](CO)[C@@H](O)[C@@H]1O [fludarabine]
- induction of apoptosis after 24 hours (malignant CLL cells): approximately 40%

Compound: CNCCC(Oc1ccc(C(F)(F)F)cc1)c1ccccc1 (centres unmarked) [fluoxetine]
- ex vivo efficacy in killing malignant cells compared with approved cytotoxic drugs (malignant CLL cells): ex vivo efficacy similar to that of the approved cytotoxic drugs
- ability of SSRIs to induce apoptosis in malignant CLL cells (malignant CLL cells): induce apoptosis similarly to clinically approved cytotoxic drugs

Compound: N=C(N)N/N=C/c1c(Cl)cccc1Cl [guanabenz]
- ex vivo efficacy in killing malignant cells compared with approved cytotoxic drugs (malignant CLL cells): ex vivo efficacy similar to that of the approved cytotoxic drugs

Compound: O=C(O)CCCc1ccc(N(CCCl)CCCl)cc1 [chlorambucil]
- induction of apoptosis by the drug alone (malignant CLL cells; CLL patient sample, low concentrations, lower curve of FIG. 11): did not induce much apoptosis
- induction of apoptosis after 24 hours (malignant CLL cells): ~45%
- % of patients responding ([2]; CLL patients with ITRT result DI (Drug Intermediate)): 66.3 (92) %
- % of patients responding ([2]; CLL patients with ITRT result DR (Drug Resistant)): 37.6 (24) %
- % of patients responding ([2]; CLL patients with ITRT result DS (Drug Sensitive)): 85.1 (94) %
- % of patients responding ([2]; all CLL patients (Total)): 71.5 (210) %

Compound: COc1ccc2[nH]c([S+]([O-])Cc3ncc(C)c(OC)c3C)nc2c1 (centres unmarked) [omeprazole]
- apoptotic rate (Annexin V positive cells) compared with cytotoxic agents (malignant CLL cells; sample of one CLL patient, FIG. 12): showed similar apoptotic rates as the cytotoxic agents
